Test results: patent US20070219213A1, “Use of Adrenergic N-Phenylpiperazine Antagonists, Pahrmaceutical Compositions Containning Them, and Methods of Preparing Them” (priority 2004, published 2007)
Several values for one entry are separate records, joined by “and”; a condition that tells them apart may be missing. Equal entries are not always repeated.

Tests used:
H1 receptors = molecular target: T1, H1 receptors (Cavia porcellus, UniProt P31389); experiment: Cobaio (guinea pig) trachea contraction induced by histamine; type: cell-based; details: histamine 100 microM, compound 3 nM-30 microM
T1 construct: from tissue; host or cells: guinea pig trachea strips
T1 sequence (P31389 whole entry): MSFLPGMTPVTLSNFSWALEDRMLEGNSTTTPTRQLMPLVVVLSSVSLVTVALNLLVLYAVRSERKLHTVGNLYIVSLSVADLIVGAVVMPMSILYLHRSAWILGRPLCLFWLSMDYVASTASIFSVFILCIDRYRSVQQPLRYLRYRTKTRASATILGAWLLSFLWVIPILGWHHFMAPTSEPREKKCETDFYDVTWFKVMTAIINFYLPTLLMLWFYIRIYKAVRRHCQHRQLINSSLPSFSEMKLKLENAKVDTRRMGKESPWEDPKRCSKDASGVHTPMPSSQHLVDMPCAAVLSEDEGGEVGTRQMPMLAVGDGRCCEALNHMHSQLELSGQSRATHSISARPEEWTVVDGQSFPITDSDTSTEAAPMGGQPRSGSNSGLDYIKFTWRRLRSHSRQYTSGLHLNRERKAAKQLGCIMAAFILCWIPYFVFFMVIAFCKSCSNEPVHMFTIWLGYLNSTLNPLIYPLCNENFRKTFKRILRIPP
From the text: Cobaios albinos from both sexes, weighing between 400 and 600 g were used in this experiment. The animals were sacrificed by cervical displacement and posterior bleed. Then, their tracheas were removed, kept in 5 microM indometacin added Krebs-Henseleit physiologic solution and oxygenated with carbogenic mixture (95% O2 and 5% CO2), proceeding the removal of the connective and adhered adipose tissue. From these tracheas were obtained segments with 4-6 rings, that are sectioned in the opposite side of the smooth musculature, originating strips used in the contractions assay (ARAKIDA et al., J. Pharmacol. Exper. Therap., 287: 633-639, 1998).
These strips were adapted in glass containers of 1.0 mL containing nutritious solution and continuous aeration with carbogenic mixture. The containers are maintained in a bath (Ugo Basile 4050) at the constant temperature of 37±0.50° C., mimicking thus physiologic terms in vitro. The trachea strips were connected to isometric force transducers (Ugo Basile 7011-4), submitted to a tension of 1 g and rested for 1 hour, changing the solution in 15 minute intervals, to obtain the balance to this tension.
After the period, the organ is treated with agonists that will induce contractions. […] The tissue viability was evaluated by contraction induction with histamine 100 microM or carbacol 10 microM. […]

[1] = system: alpha 1A and alpha 1B adrenoceptors (rabbit aorta, α1A > α1B); experiment: Vasoconstriction assay in rabbit aorta induced by phenylephrine; type: cell-based; details: for pKB (apparent antagonist potency): Schild equation, 3-300 nM
Procedure: Vasoconstriction Assay in Rabbit Aorta Induced by Phenylephrine
Aorta rings withdrawn from young male rabbits (1500-1700 g) were tensionated to 2 g (20 mN) and kept in Krebs solution, containing 10 mM Hepes, for 30 minutes, under continuous aeration. During this period, eventual tension adjustments were performed until stabilization in 2 g, always with renewal of Krebs solution. Then, vasoconstrictions were induced by 60 mM KCl solution, in each ring, to verify the viability of the organ on the day of the experiment. The preparation was submitted to contraction with phenylephrine (5×10^−5 M) and, then the rings were washed to reach the basal line (0% of vasoconstriction). The procedure was repeated until obtainment of a constant curve. Then, a curve, using increasing concentrations of phenylephrine (5×10^−9-5×10^−4 M), was performed for each ring, as a positive control. The segments were washed to reach the basal line (0% of vasoconstriction) and incubated with the test compounds, individually, for 30 minutes. A second phenylephrine curve was performed and the obtained data compared to the first control curve. The results were analyzed by one-way ANOVA software from Microcal Origin 4.1. The aorta rings were used once for each compound.
(§1) Determination of the LASSBio 772 Antagonist Potency (pKB) on the Vasoconstriction of Rabbit or Rat Thoracic Aorta.
cr is the ratio between phenylephrine concentrations in the presence and absence of antagonist; and
B is the antagonist's concentration.

[2] = molecular target: T2, alpha 1D adrenoceptor (rat aorta) (Rattus norvegicus, UniProt P23944); experiment: Vasoconstriction assay in rat aorta induced by norepinephrine; type: cell-based
T2 construct: from tissue; host or cells: rat aorta segments with endothelium
T2 sequence (P23944 1-561): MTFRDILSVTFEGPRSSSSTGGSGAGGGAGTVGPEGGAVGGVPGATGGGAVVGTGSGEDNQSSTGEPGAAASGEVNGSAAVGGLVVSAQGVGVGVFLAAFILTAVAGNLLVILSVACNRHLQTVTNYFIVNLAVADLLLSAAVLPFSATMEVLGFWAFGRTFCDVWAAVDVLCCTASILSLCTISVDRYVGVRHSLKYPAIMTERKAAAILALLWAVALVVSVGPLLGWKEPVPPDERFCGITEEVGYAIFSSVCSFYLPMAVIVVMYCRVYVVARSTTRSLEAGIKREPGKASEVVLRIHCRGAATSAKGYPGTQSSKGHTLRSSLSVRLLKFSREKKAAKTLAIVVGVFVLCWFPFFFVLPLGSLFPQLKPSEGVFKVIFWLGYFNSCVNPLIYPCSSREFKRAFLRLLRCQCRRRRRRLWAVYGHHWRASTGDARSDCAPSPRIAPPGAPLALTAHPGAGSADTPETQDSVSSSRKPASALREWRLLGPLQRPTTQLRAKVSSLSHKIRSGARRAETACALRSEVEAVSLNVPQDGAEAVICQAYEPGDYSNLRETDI
Procedure: Vasoconstriction Assay in Mouse Aorta Induced By Norepinephrine
Aorta segments with endothelium (3 mm), withdrawn from young male rats (250-300 g), were placed in containers containing physiologic solution (NaCl 122 mM, KCl 5 mM, NaHCO3 15 mM, glucose 11.5 mM, MgCl2 1.2 mM, CaCl2 1.25 mM and KH2PO4 1.2 mM), kept at 37° C. under aeration with a mixture of 95% of O2 and 5% of CO2, and submitted to a pre-charge of 5 mN for 60 minutes. During this period, eventual tension adjustments were performed until the stabilization in 0.5 g, always with renewal with physiologic solution. Then, vasoconstriction was induced by 60 mM KCl solution, in each ring, to verify the viability of the organ on the day of experiment. The preparation was submitted to the contraction with norepinephrine (5×10^−5 M) and, then the rings were washed to reach the basal line (0% of vasoconstriction). The procedure was repeated until the obtainment of a constant curve. Later, a curve, using increasing concentrations of norepinephrine (3×10^−8-5×10^−5 M), was performed for each ring, as a positive control. The segments were washed to reach the basal line (0% of vasoconstriction) and incubated with the test compounds, individually, for 30 minutes. A second norepinephrine curve was performed and obtained data compared to the first control curve. […] The aorta rings were used once for each compound.
as §1

alpha 1B subtype = molecular target: T3, alpha 1B subtype (Rattus norvegicus, UniProt P15823); experiment: [3H]prazosin binding assay in rat liver
T3 construct: from tissue; host or cells: rat liver homogenate/membranes
T3 sequence (P15823 1-515): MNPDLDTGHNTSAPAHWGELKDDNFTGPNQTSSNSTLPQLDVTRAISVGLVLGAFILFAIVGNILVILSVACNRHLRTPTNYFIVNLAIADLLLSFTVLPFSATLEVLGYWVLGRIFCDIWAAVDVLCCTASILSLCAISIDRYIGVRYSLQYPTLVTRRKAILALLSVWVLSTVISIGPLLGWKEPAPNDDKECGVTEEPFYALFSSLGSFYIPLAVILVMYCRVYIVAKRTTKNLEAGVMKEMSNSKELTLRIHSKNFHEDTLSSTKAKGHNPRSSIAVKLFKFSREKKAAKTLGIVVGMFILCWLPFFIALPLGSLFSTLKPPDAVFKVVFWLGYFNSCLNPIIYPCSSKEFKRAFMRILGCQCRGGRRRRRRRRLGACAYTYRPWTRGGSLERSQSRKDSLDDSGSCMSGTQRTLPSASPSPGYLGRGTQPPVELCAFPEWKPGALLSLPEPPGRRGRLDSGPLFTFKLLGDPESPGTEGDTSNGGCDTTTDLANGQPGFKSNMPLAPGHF

COc1ccccc1N1CCN(CCc2ccc3c(c2)OCO3)CC1 [LASSBio 772, 1-(2-1,3-Benzodioxol-5-yl-ethyl)-4-(2-methoxy-phenyl)-piperazine]
IC50 (H1 receptors): 309 nM | antagonist activity on vasoconstriction ([1]; 30 microM compound, 5×10^−4 M phenylephrine): significant antagonist activity | Kb ([1]; rabbit aorta, phenylephrine): ~14.1 nM | pKB (apparent antagonist potency) ([1]; rabbit aorta, phenylephrine): 7.85 | pKB (apparent antagonist potency) ([1]; rabbit aorta, phenylephrine, listed as LASSBio-772): around 7.85 | selectivity index for alpha 1D in comparison to alpha 1B subtype [2]: ≥ 10000 | Kb ([2]; pKB, rat aorta, α1D): 0.0132 nM and 0.0138 nM | affinity for alpha 1D subtype relative to BMY 7378 ([2]; rat aorta): ≥ 430 times | IC50 (alpha 1B subtype): 450 nM
